This is an account of results in PubChem BioAssay (NCI).

Common to all, as to experiment: growth of human tumour cells (NCI), 48 h
Test [1] has as its system CCRF-CEM leukemia.
Test [2] deals with SN12C renal.
Test [3] has as its system HL-60(TB) leukemia.
Test [4] has as its system OVCAR-4 ovarian.
The subject of test [5] is SK-OV-3 ovarian.
The subject of test [6] is MDA-MB-231 breast.
Test [7] relates to NCI-H226 lung.
Test [8] deals with SF-295 CNS.
Test [9] deals with HS 578T breast.
Test [10] has as its system COLO 205 colon.

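48-hour exposure; five concentrations; linearly interpolated endpoints. Abbreviation: GI50, concentration required for 50% inhibition of growth. TGI: concentration producing complete growth inhibition.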 A value given as a limit tells only on which side of the number the result lay.

For `COc1cc2c3c(c4ccc(OC)c(OC)c4c2cc1OC)CN1CCC[C@@H]1C3`, the TGI in test [1] was 0.651 µM; in [2] it was 18 µM; in test [3], 0.577 µM; in [4], 1.42 µM; in test [5], 2.84 µM; in test [6] it was 0.156 µM. Further, the TGI in [7] was found to be 0.263 µM; in test [8], 6.39 µM; in test [9], 0.593 µM.
As to `Fc1ccc(-c2nn3c(CNc4ccccc4)nnc3s2)cc1`, the GI50 in [1] was 36.2 µM; in test [2] it was 22.7 µM; in test [3], > 100 µM; in [4] it was 90.7 µM; in test [6] it was 27.9 µM; in test [7], 45.5 µM. In addition, the GI50 in test [8] was 20.5 µM; in [10], 11.2 µM; in test [9], 49.7 µM. Further, the TGI is > 100 µM in test [1]; 90.8 µM in test [2]; > 100 µM in [3]; > 100 µM in [4]; > 100 µM in [6]; > 100 µM in test [7]. The TGI in [8] was 59.3 µM; in [10], > 100 µM; in test [9], > 100 µM.
Turning to `NCCCCCCCCn1c2c(c3ccccc3c1=O)C(=O)c1ccccc1-2`, the GI50 in test [2] is 3.45 µM; in [3], 2.34 µM; in [4], 4.34 µM; in test [5], 16.6 µM; in test [6], 2.12 µM; in test [7] it was 14 µM. Also, the results for the GI50 in test [8] and in [9] were 2.57 µM and 3.83 µM, respectively. In addition, the TGI in [2] amounted to 11.3 µM; in test [3], 6.23 µM; in test [4] it was 27.4 µM; in test [5] it was 39.4 µM; in test [6], 5.73 µM; in [7], 34.8 µM. Besides, the TGI in [8] was determined as 7.18 µM; in test [9], 22.2 µM.
For `O=C(NCCc1ccccc1)C(c1ccccc1)(c1ccccc1)c1ccccc1`, the GI50 in test [1] was 40 µM; in test [2], 1.8 µM; in test [3] it was 38.7 µM; in test [4], > 100 µM; in test [5] it was 26 µM; in test [6], 0.519 µM. In addition, the results for the GI50 in test [8], in test [10] and in test [9] were 2.51 µM, 3.26 µM and 3.88 µM, respectively. Further, the TGI is > 100 µM in test [1]; 5.96 µM in test [2]; > 100 µM in test [3]; > 100 µM in [4]; > 100 µM in test [5]; 4.21 µM in test [6]. For the same molecule, the figures for the TGI in [8], in test [10] and in [9] were 9.36 µM, > 100 µM and 23.7 µM, respectively.
For the molecule `CNC1C(O)C(OC2C(N)CC(N)C(OC3OC(CN)=CCC3N)C2O)OCC1(C)O` (stereo not given), the TGI in test [1], in [2], in test [3], in test [5], in [6] and in [7] was > 100 µM throughout. Also, the TGI in [8], in test [10] and in [9] was > 100 µM throughout.
`NC(=O)C1c2ccccc2C=Cc2ccccc21`: the GI50 in test [2], in test [3], in test [4], in [5], in test [6] and in test [7] was > 100 µM in each case. The GI50 in [8], in test [10] and in test [9] was > 100 µM throughout. Also, the TGI in test [2], in test [3], in test [4], in test [5], in [6] and in test [7] was > 100 µM throughout. Further, the TGI in test [8], in test [10] and in [9] was > 100 µM in each case.
For `COc1c2ccoc2cc2oc(=O)ccc12`, the TGI in test [1], in test [2], in test [3], in test [4], in [6] and in test [7] was > 100 µM in each case. Further, the TGI in [8], in [10] and in test [9] was > 100 µM each time.
For `Cc1ccc2c(c1)C(C)Cc1c(ncnc1-n1cnc3cc(C)ccc31)N2C` (stereo not given), the GI50 in test [1] was 0.0362 µM; in test [2], 0.086 µM; in [3], 0.025 µM; in [4], 0.0729 µM; in [5] it was 0.0295 µM; in test [6], 0.0416 µM. Also, the GI50 in test [7] is 0.0551 µM; in [10], 0.0224 µM; in test [9] it was 0.0459 µM. Besides, the TGI in [1] came to 17.6 µM; in [2], 16.3 µM; in test [3], 0.0557 µM; in test [4] it was 19 µM; in test [5] it was 1.09 µM; in test [6] it was 13.4 µM. In addition, the TGI in [7] is 22.8 µM; in [10], 0.0553 µM; in test [9], 23 µM.
